Drawing on patent US4187216A, “Dipeptide derivatives” (Hoffmann-La Roche Inc., priority 1976, dated 1980), this text covers IC50 and Ki for twelve compounds.

The target in experiment [1] is T1, human granulocyte elastase (Homo sapiens, UniProt P08246).
T1 sequence (P08246 30-267): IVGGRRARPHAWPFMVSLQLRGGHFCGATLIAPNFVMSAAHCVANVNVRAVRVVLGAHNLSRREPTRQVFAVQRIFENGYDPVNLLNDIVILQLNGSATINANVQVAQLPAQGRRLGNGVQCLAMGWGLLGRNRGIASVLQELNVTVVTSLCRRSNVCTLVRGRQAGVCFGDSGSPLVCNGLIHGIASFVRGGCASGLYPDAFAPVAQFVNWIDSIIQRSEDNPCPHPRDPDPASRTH
Description: in vitro elastase inhibition, test method of Visser and Blout, human granulocyte elastase as enzyme. It counts as biochemical. The note with it: read-out: I50, concentration which gives 50% inhibition of the human granulocyte elastase. From the text: Acta 268 (1972) 257, using human granulocyte elastase as the enzyme. The results obtained with representative dipeptide derivatives of formula I in this test are given in Table I hereinafter, the I50 being the concentration in millimoles per liter which gives 50% inhibition of the human granulocyte elastase: […]

Experiment [2] has as its target porcine pancreatic elastase (Sus scrofa, UniProt P00772). The experiment can be described thus: in vitro elastase inhibition, test method of Visser and Blout, porcine pancreatic elastase as enzyme. It counts as biochemical. The note with it: read-out: Ki, inhibitor constant.

Structures can show the parent of a compound that is named as a salt. Residues, ends and D or L forms follow the SMILES beside them. *: point of attachment. pNA = O=[N+]([O-])c1ccc(N*)cc1; Tos = Cc1ccc(S(=O)(=O)*)cc1; Hexanoyl = CCCCCC(=O)*; Propionyl = CCC(=O)*; Tfa = O=C(C(F)(F)F)*; NHPh = c1ccc(N*)cc1

porcine pancreatic elastase, sequence (P00772 27-266): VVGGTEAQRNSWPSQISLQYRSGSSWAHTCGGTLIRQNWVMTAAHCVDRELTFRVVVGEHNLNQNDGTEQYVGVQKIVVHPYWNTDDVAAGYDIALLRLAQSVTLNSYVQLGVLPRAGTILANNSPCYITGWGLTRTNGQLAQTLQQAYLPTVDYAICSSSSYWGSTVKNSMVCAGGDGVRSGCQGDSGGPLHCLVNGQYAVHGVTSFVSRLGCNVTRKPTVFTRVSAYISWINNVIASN

With `C[C@H](NC(=O)C12CC3CC(CC(C3)C1)C2)C(=O)N1CCC[C@H]1C(=O)Nc1ccccc1` [N-(1-Adamantylcarbonyl)-L-alanyl-L-proline anilide], in experiment [1], the IC50 worked out at 600 µM. Same read-out and setting: for `C[C@H](NC(=O)OCc1ccccc1)C(=O)N1CCC[C@H]1C(=O)NC1CCCCC1` [N-Benzyloxycarbonyl-L-alanyl-L-proline cyclohexylamide] the value was 1000 µM.

The term Ki denotes the dissociation constant of the complex between target and ligand, obtained from inhibition or displacement. For the compound `C[C@H](NC(=O)C(F)(F)F)C(=O)N1CCC[C@H]1C(=O)Nc1ccccc1` [N-Trifluoroacetyl-L-alanyl-L-proline anilide] (Tfa-Ala-Pro-NHPh), in experiment [2], the Ki came out at 1.4 µM. On the same count and under the same terms, the result for `CCC(=O)N[C@@H](C)C(=O)N1CCC[C@H]1C(=O)Nc1ccccc1` [N-Propionyl-L-alanyl-L-proline anilide] (Propionyl-Ala-Pro-NHPh) reads 40 µM. Regarding `C[C@H](NC(=O)CC12CC3CC(CC(C3)C1)C2)C(=O)N1CCC[C@H]1C(=O)Nc1ccccc1` [N-(1-Adamantylacetyl)-L-alanyl-L-proline anilide], the IC50 in experiment [1] turned out to be 60 µM. `CCC(=O)N[C@@H](C)C(=O)N1CCC[C@H]1C(=O)Nc1ccc([N+](=O)[O-])cc1` [N-Propionyl-L-alanyl-L-proline 4-nitroanilide] (Propionyl-Ala-Pro-pNA): the Ki in experiment [2] was 26 µM. With `Cc1ccc(S(=O)(=O)N[C@@H](C)C(=O)N2CCC[C@H]2C(=O)Nc2ccccc2)cc1` [N-(p-Toluenesulphonyl)-L-alanyl-L-proline anilide] (Tos-Ala-Pro-NHPh), in experiment [1], the IC50 was 60 µM. On to `CCC(=O)N[C@@H](C)C(=O)N1CCC[C@H]1C(=O)NC1CCCCC1` [N-Propionyl-L-alanyl-L-proline cyclohexylamide], for which, in experiment [2], the Ki was 20 µM. In the case of `CCCCCC(=O)N[C@@H](C)C(=O)N1CCC[C@H]1C(=O)Nc1ccccc1` [(N-Hexanoyl-L-alanyl-L-proline) anilide, N-Hexanoyl-L-alanyl-L-proline anilide] (Hexanoyl-Ala-Pro-NHPh), in experiment [1], the IC50 was determined as 800 µM. Same read-out and setting: for `C[C@H](NS(=O)(=O)C12CC3CC(CC(C3)C1)C2)C(=O)N1CCC[C@H]1C(=O)Nc1ccccc1` [N-(1-Adamantylsulphonyl)-L-alanyl-L-proline anilide] the value was 7 µM. For `CCCCCNC(=O)[C@@H]1CCCN1C(=O)[C@H](C)NC(=O)OCc1ccccc1` [N-Benzyloxycarbonyl-L-alanyl-L-proline n-pentylamide], the IC50 in experiment [1] is ~5000 µM.

For the compound `CCC(=O)N[C@@H](C)C(=O)N[C@@H](C)C(=O)Nc1ccccc1` [N-Propionyl-L-alanyl-L-alanine anilide] (Propionyl-Ala-Ala-NHPh), the Ki in experiment [2] is 40 µM.
